Where a name gives a salt, the structure may show the parent alone.
Target: T1, IGF-1R (Homo sapiens, UniProt P08069)
T1 construct: purchased Upstate Co. 14-465
Experiment: IGF-1R inhibitory activity (kinase reaction, time-resolved fluoroimmunoassay)
Type: biochemical
Settings: IGF-1R active recombinant enzyme, test compound 10 μmol/L
Procedure: The IGF-1R inhibitory activity was measured in the following manner.
As IGF-1R, active recombinant enzyme (Catalog No. 14-465) purchased from Upstate Co., was used. To 96 well plate (FIA-PLATE BLACK 96 well FALT-BOTTOM HIGH BINDING, Greiner Bio-one, Catalog No. 655077) coated with NeutroAvidin (Pierce, Catalog No. 31000), biotinylated polyglutamic acid-tyrosine peptide (Nihon Schering K.K., Catalog No. 61GT0BAA) was immobilized and then blocked with 0.25% gelatin to be used as a plate for measuring the kinase reaction. Separately was prepared a solution containing at final concentrations, IGF-1R (200 μg/L), Tris.HCl(pH 7.5)(20 mmol/L), Na3VO4(0.1 mmol/L), MgCl2(1 mmol/L), MnCl2(10 mmol/L), ATP(10 mmol/L), 2-mercaptoethanol (0.04%), BSA(Bovine Serum Albumin) (0.1%), DMSO(0.1%), test compound (10 μmol/L). The solution (each 50 μL) was added to the well of the plate for measuring the kinase reaction and then, enzyme reaction was performed for 30 minutes at 24° C. The plate was washed with TBS-T [10 mmol/L Tris Cl (pH 7.5), 150 mmol/L NaCl, 0.05% Tween 20 (Bio-Rad, Catalog No. 170-6531)] 4 times, then reacted with europium-labeled anti-phosphotyrosine antibody, further washed with TBS-T 4 times and then, measured with time-resolved fluoroimmunoassay (excitation wavelength 340 nm, measuring wavelength 615 nm). The value of a well to which the test compound had not been added was considered as 100% and that of a well where the enzyme and the test compound had not been added was considered as 0%. The relative activity (%) of the well which was added with enzyme and the test compound was measured and by subtracting the calculated value from 100, IGF-1R inhibitory activity of the test compound (%) was determined.

T1 sequence (P08069 959-1367 limits assumed): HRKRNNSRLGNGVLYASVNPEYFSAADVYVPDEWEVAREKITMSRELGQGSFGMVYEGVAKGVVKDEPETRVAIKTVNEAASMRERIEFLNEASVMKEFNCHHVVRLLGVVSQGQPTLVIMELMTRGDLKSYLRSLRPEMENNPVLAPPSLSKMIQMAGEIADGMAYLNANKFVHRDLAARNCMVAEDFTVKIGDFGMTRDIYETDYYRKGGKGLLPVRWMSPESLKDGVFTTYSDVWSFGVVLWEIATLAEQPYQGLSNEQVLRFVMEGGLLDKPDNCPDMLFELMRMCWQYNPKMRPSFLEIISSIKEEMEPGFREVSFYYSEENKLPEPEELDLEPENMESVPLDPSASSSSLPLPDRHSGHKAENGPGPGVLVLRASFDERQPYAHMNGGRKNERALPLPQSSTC

| inhibition at 10 µM [%] | inhibitory activity (%) at 10 μmol/L [%] | Structure (SMILES) |
| --- | --- | --- |
| 69.8 | – | O=C(O)c1csc(Nc2ccccc2/C=C/c2n[nH]c3ccccc23)n1 [Compound 170, (E)-2-{2-[2-(1H-indazol-3-yl)vinyl]phenylamino}thiazole-4-carboxylic acid] |
| 87.2 | – | O=C(c1cnc(Nc2ccccc2/C=C/c2n[nH]c3ccccc23)s1)N1CCC(O)CC1 [Compound 171, (E)-4-hydroxy-1-{2-[2-(2-(1H-indazol-3-yl)vinyl)phenylamino]thiazole-5-ylcarbonyl}piperidine] |
| 97.8 | – | OCc1csc(Nc2ccccc2/C=C/c2n[nH]c3ccccc23)n1 [Compound 173, (E)-2-{2-[2-(1H-indazol-3-yl)vinyl]phenylamino}thiazole-4-methanol] |
| 100 | – | CN(C)C(=O)c1nc(-c2ccccc2/C=C/c2n[nH]c3ccccc23)no1 [Compound 176, (E)-N,N-dimethyl-3-{2-[2-(1H-indazol-3-yl)vinyl]phenyl}[1,2,4]oxadiazole-5-carboxamide] |
| 99.4 | – | CNC(=O)c1nc(-c2ccccc2/C=C/c2n[nH]c3ccccc23)no1 [Compound 177, (E)-3-{2-[2-(1H-indazol-3-yl)vinyl]phenyl}-N-methyl[1,2,4]oxadiazole-5-carboxamide] |
| 71.1 | – | O=c1[nH]c(-c2ccccc2/C=C/c2n[nH]c3ccccc23)no1 [Compound 178, (E)-3-{2-[2-(1H-indazol-3-yl)vinyl]phenyl}-4H-[1,2,4]oxadiazole-5-one] |
| 99.6 | – | OCc1nc(-c2ccccc2/C=C/c2n[nH]c3ccccc23)no1 [Compound 179, (E)-3-{2-[2-(1H-indazol-3-yl)vinyl]phenyl}[1,2,4]oxadiazol-5-ylmethanol] |
| 98.1 | – | OCCCc1nc(-c2ccccc2/C=C/c2n[nH]c3ccccc23)no1 [Compound 180, (E)-3-(3-{2-[2-(1H-indazol-3-yl)vinyl]phenyl}[1,2,4]oxadiazol-5-yl)propan-1-ol] |
| 98.9 | – | OCCc1nc(-c2ccccc2/C=C/c2n[nH]c3ccccc23)no1 [Compound 181, (E)-2-{3-{2-[2-(1H-indazol-3-yl)vinyl]phenyl}[1,2,4]oxadiazol-5-yl}ethanol] |
| 97.9 | – | C(=C\c1n[nH]c2ccccc12)/c1ccccc1-n1ccc(CN2CCOCC2)c1 [Compound 182, (E)-3-{2-[2-(3-morpholin-4-ylmethylpyrrol-1-yl)phenyl]vinyl}-1H-indazole] |
| 59.1 | – | C(=C\c1n[nH]c2ccccc12)/c1ccccc1-c1nc2ccccc2o1 [Compound 183, (E)-2-{2-[2-(1H-indazol-3-yl)vinyl]phenyl}benzoxazole] |
| 93.2 | – | Nc1ccc2oc(-c3ccccc3/C=C/c3n[nH]c4ccccc34)nc2c1 [Compound 185, (E)-2-{2-[2-(1H-indazol-3-yl)vinyl]phenyl}benzoxazol-5-ylamine] |
| 102 | – | CN(C)CCNCc1ccn(-c2ccccc2/C=C/c2n[nH]c3ccccc23)c1 [Compound 186, (E)-N′-(1-{2-[2-(1H-indazol-3-yl)vinyl]phenyl}-1H-pyrrol-3-ylmethyl)-N,N-dimethylethane-1,2-diamine] |
| 98.2 | – | OCCNCc1ccn(-c2ccccc2/C=C/c2n[nH]c3ccccc23)c1 [Compound 187, (E)-2-(1-{2-[2-(1H-indazol-3-yl)vinyl]phenyl}-1H-pyrrol-3-ylmethylamino)ethanol] |
| 99.4 | – | CN(C)CCN(C)Cc1ccn(-c2ccccc2/C=C/c2n[nH]c3ccccc23)c1 [Compound 188, (E)-N-(1-{2-[2-(1H-indazol-3-yl)vinyl]phenyl}-1H-pyrrol-3-ylmethyl)-N,N′,N′-trimethylethane-1,2-diamine] |
| 102 | – | C(=C\c1n[nH]c2ccccc12)/c1ccccc1-n1ccc(CNCC2CC2)c1 [Compound 189, (E)-3-cyclopropylmethylaminomethyl-1-{2-[2-(1H-indazol-3-yl)vinyl]phenyl}pyrrole] |
| – | 96.9 | Cc1ccc(C)n1-c1ccccc1/C=C/c1n[nH]c2ccccc12 [Compound 190] |
| 102 | – | Cc1cc(CO)c(C)n1-c1ccccc1/C=C/c1n[nH]c2ccccc12 [Compound 191, (E)-1-{2-[2-(1H-indazol-3-yl)vinyl]phenyl}-2,5-dimethyl-1H-pyrrol-3-ylmethanol] |
| 92.3 | – | O=C1c2ccc([N+](=O)[O-])cc2C(=O)N1c1ccccc1/C=C/c1n[nH]c2ccccc12 [Compound 192, (E)-2-{2-[2-(1H-indazol-3-yl)vinyl]phenyl}-5-nitroisoindole-1,3-dione] |

| inhibition at 10 µM [%] | inhibitory activity (%) at 10 μmol/L [%] | Structure (SMILES) |
| --- | --- | --- |
| 99.8 | – | O=C1c2ccc(Cl)cc2C(=O)N1c1ccccc1/C=C/c1n[nH]c2ccccc12 [Compound 196, (E)-5-chloro-2-{2-[2-(1H-indazol-3-yl)vinyl]phenyl}isoindole-1,3-dione] |
| 101 | – | Cc1ccc2c(c1)C(=O)N(c1ccccc1/C=C/c1n[nH]c3ccccc13)C2=O [Compound 197, (E)-2-{2-[2-(1H-indazol-3-yl)vinyl]phenyl}-5-methylisoindole-1,3-dione] |
| 87.2 | – | O=C1c2ccncc2C(=O)N1c1ccccc1/C=C/c1n[nH]c2ccccc12 [Compound 198, (E)-2-{2-[2-(1H-indazol-3-yl)vinyl]phenyl}pyrrolo[3,4-c]pyridine-1,3-dione hydrochloride] |
| 99.4 | – | O=C1c2cccc(F)c2C(=O)N1c1ccccc1/C=C/c1n[nH]c2ccccc12 [Compound 199, (E)-4-fluoro-2-{2-[2-(1H-indazol-3-yl)vinyl]phenyl}isoindole-1,3-dione] |
| 67.5 | – | O=C1c2cccc(O)c2C(=O)N1c1ccccc1/C=C/c1n[nH]c2ccccc12 [Compound 200, (E)-4-hydroxy-2-{2-[2-(1H-indazol-3-yl)vinyl]phenyl}isoindole-1,3-dione] |
| 99.1 | – | CCNc1ccc2c(c1)C(=O)N(c1ccccc1/C=C/c1n[nH]c3ccccc13)C2=O [Compound 201, (E)-5-ethylamino-2-{2-[2-(1H-indazol-3-yl)vinyl]phenyl}isoindole-1,3-dione] |
| 85.9 | – | O=C1c2cc3ccccc3cc2C(=O)N1c1ccccc1/C=C/c1n[nH]c2ccccc12 [Compound 202, (E)-2-{2-[2-(1H-indazol-3-yl)vinyl]phenyl}benzo[f]isoindole-1,3-dione] |
| 101 | – | O=C1C2=C(CCCC2)C(=O)N1c1ccccc1/C=C/c1n[nH]c2ccccc12 [Compound 203, (E)-2-{2-[2-(1H-indazol-3-yl)vinyl]phenyl}-4,5,6,7-tetrahydroisoindole-1,3-dione] |
| 99.8 | – | CC1=C(C)C(=O)N(c2ccccc2/C=C/c2n[nH]c3ccccc23)C1=O [Compound 204, (E)-1-{2-[2-(1H-indazol-3-yl)vinyl]phenyl}-3,4-dimethylpyrrole-2,5-dione] |
| 89.8 | – | O=C1c2cccnc2C(=O)N1c1ccccc1/C=C/c1n[nH]c2ccccc12 [Compound 205, (E)-6-{2-[2-(1H-indazol-3-yl)vinyl]phenyl}pyrrolo[3,4-b]pyridine-5,7-dione] |
| 101 | – | O=C1CCCCN1c1ccccc1/C=C/c1n[nH]c2ccccc12 [Compound 206, (E)-1-{2-[2-(1H-indazol-3-yl)vinyl]phenyl}piperidin-2-one] |
| 98.1 | – | O=C1C(Cl)=C(Cl)C(=O)N1c1ccccc1/C=C/c1n[nH]c2ccccc12 [Compound 207, (E)-3,4-dichloro-1-{2-[2-(1H-indazol-3-yl)vinyl]phenyl}pyrrole-2,5-dione] |
| 96.1 | – | O=C1CCCN1c1ccccc1/C=C/c1n[nH]c2ccccc12 [Compound 208, (E)-1-{2-[2-(1H-indazol-3-yl)vinyl]phenyl}pyrrolidin-2-one] |
| 99.5 | – | O=C1c2ccsc2C(=O)N1c1ccccc1/C=C/c1n[nH]c2ccccc12 [Compound 209, (E)-5-{2-[2-(1H-indazol-3-yl)vinyl]phenyl}thieno[2,3-c]pyrrole-4,6-dione] |
| 96.5 | – | O=C1C2=C(CCC2)C(=O)N1c1ccccc1/C=C/c1n[nH]c2ccccc12 [Compound 210, (E)-2-{2-[2-(1H-indazol-3-yl)vinyl]phenyl}-5,6-dihydro-4H-cyclopenta[c]pyrrole-1,3-dione] |
| 86.7 | – | O=C1CCC(=O)N1c1ccccc1/C=C/c1n[nH]c2ccccc12 [Compound 211, (E)-1-{2-[2-(1H-indazol-3-yl)vinyl]phenyl}pyrrolidine-2,5-dione] |
| 83.6 | – | O=C1CNC(=O)N1c1ccccc1/C=C/c1n[nH]c2ccccc12 [Compound 212, (E)-3-{2-[2-(1H-indazol-3-yl)vinyl]phenyl}imidazolidine-2,4-dione] |
| 81.2 | – | CS(=O)(=O)c1ccc(C(=O)Nc2ccccc2/C=C/c2n[nH]c3ccccc23)cc1 [Compound 215, (E)-N-{2-[2-(1H-indazol-3-yl)vinyl]phenyl}-4-methanesulfonylbenzamide] |

— patent publication US7605272B2, “IGF-1R inhibitor” (Kyowa Hakko Kirin Co., Ltd., priority 2005, dated 2009)
